Patent US9023865B2, “Compounds that are ERK inhibitors” (Merck Sharp & Dohme Corp., priority 2011, dated 2015)
Counter-ions that a name gives are not always drawn. Like-named read-outs stand apart in the source and are kept apart here.

How the values were obtained:
[1] = biological target: Active Mouse ERK2 (mERK2) (Mus musculus (Mouse), UniProt P63085); assay: Active Mouse ERK2 (mERK2) Activity Assay (IMAP-FP); format: biochemical
Method: Active Mouse ERK2 (mERK2) Activity Assay:
Activated ERK2 activity was determined in an IMAP-FP assay (Molecular Devices). […] Phosphorylation reactions were allowed to proceed for 45 minutes and were immediately quenched by the addition of 60 μL IMAP detection beads (1:1000 dilutions) in IMAP binding buffer (Molecular Devices) with 24 mM NaCl. Plates were read on EnVision reader after 60 minutes binding equilibration using Fluorescence Polarization protocol (Perkin Elmer).

[2] = biological target: Active Human ERK2 (hERK2) (Homo sapiens (Human), UniProt P28482); assay: Active Human ERK2 (hERK2) Activity Assay (IMAP-FP); format: biochemical; settings: read-out: ERK 2 Human average IC50
Sequence of Active Human ERK2 (hERK2) (P28482 whole entry): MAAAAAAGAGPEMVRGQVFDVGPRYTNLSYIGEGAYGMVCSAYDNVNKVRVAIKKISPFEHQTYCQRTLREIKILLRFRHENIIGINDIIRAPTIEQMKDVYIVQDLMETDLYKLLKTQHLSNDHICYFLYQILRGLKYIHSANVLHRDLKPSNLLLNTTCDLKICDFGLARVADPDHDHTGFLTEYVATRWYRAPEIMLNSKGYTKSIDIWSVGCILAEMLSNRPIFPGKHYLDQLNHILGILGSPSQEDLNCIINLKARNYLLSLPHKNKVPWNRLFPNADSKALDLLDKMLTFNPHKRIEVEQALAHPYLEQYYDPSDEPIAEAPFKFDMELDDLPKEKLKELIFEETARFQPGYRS
Method in brief: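 Phosphorylation by activated human ERK2 (0.5 nM) at 30 μM ATP, peptide substrate 900 nM unlabeled with 80 nM labeled, proceeds 60 min. IMAP beads stop the reaction; after 60 min equilibration, product is measured by fluorescence polarization.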

[3] = phosphorylated active mERK2, 30 uM ATP, read-out: ERK 2 MAPK1 Mouse IC50
[4] = read-out: AERK2 IC50 (Active mouse ERK2 Activity Assay)
[5] = phosphorylated active hERK2, 30 μM ATP, average

Sequence of Active Mouse ERK2 (mERK2) (P63085 whole entry): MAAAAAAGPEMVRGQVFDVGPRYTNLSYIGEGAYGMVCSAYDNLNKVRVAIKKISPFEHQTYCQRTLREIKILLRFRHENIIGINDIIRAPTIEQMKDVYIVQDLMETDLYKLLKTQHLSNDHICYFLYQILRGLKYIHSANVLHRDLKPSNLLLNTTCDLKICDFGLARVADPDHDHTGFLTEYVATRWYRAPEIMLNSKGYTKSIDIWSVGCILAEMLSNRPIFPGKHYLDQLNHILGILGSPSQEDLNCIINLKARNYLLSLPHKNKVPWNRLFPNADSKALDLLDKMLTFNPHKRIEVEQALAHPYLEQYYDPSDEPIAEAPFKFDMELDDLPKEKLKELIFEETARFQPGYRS

| IC50 [1, 3] | IC50 [1, 4] | IC50 [2, 5] | SMILES | IC50 [2] |
| --- | --- | --- | --- | --- |
| 38.3 nM |  |  | Cc1cc(-c2n[nH]c3cc(NC(=O)N[C@@H](C)c4ccccc4)ncc23)ccn1 [Example 7, 1-[3-(2-methylpyridin-4-yl)-1H-pyrazolo[4,3-c]pyridin-6-yl]-3-[(1S)-1-phenylethyl]urea] |  |
| 3.78 nM |  |  | Cc1cc(-c2n[nH]c3cc(NC(=O)N[C@@H](c4ccccc4)C(F)(F)F)ncc23)ccn1 [Example 16, 1-[3-(2-methylpyridin-4-yl)-1H-pyrazolo[4,3-c]pyridin-6-yl]-3-[(1S)-2,2,2-trifluoro-1-phenylethyl]urea] |  |
| 0.502 nM | 0.1 to 1.2 nM |  | Cc1cc(-c2n[nH]c3cc(NC(=O)NCCc4ccccc4)ncc23)ccn1 [Example 5, 1-[3-(2-methylpyridin-4-yl)-1H-pyrazolo[4,3-c]pyridin-6-yl]-3-(2-phenylethyl)urea] |  |
| 1.16 nM | 0.1 to 1.2 nM |  | Cc1cc(-c2n[nH]c3cc(NC(=O)NCc4cccnc4)ncc23)ccn1 [Example 14, 1-[3-(2-methylpyridin-4-yl)-1H-pyrazolo[4,3-c]pyridin-6-yl]-3-(pyridin-3-ylmethyl)urea] |  |
|  | 0.1 to 1.2 nM | 0.392 nM | Cc1cc(-c2n[nH]c3cc(NC(=O)N[C@H](CO)c4ccccc4)ncc23)ccn1 [Example 15, 1-[(1S)-2-hydroxy-1-phenylethyl]-3-[3-(2-methylpyridin-4-yl)-1H-pyrazolo[4,3-c]pyridin-6-yl]urea] |  |
| 682 nM |  | 836 nM | C[C@@H](NC(=O)Nc1cc2[nH]ncc2cn1)c1ccc(F)cc1 [Example 24, 1-[(1R)-1-(4-fluorophenyl)ethyl]-3-(1H-pyrazolo[4,3-c]pyridin-6-yl)urea] |  |
| 0.457 nM | 0.1 to 1.2 nM | 0.513 nM | Cc1cc(-c2n[nH]c3cc(NC(=O)NCc4ccc(Cl)cc4)ncc23)ccn1 [Example 26, 1-(4-chlorobenzyl)-3-[3-(2-methylpyridin-4-yl)-1H-pyrazolo[4,3-c]pyridin-6-yl]urea] |  |
| 9.46 nM |  |  | Cc1cc(-c2n[nH]c3cc(NC(=O)N[C@H](c4ccccc4)C(F)(F)F)ncc23)ccn1 [Example 18, 1-[3-(2-methylpyridin-4-yl)-1H-pyrazolo[4,3-c]pyridin-6-yl]-3-[(1R)-2,2,2-trifluoro-1-phenylethyl]urea] |  |
| 10.2 nM |  |  | Cc1cc(-c2n[nH]c3cc(NC(=O)NCc4nnc(C)o4)ncc23)ccn1 [Example 13] |  |
| 0.919 nM | 0.1 to 1.2 nM | 1.61 nM | CCCc1n[nH]c2cc(NC(=O)N[C@H](C)c3ccccc3)ncc12 [Example 22, (R)-1-(1-phenylethyl)-3-(3-propyl-1H-pyrazolo[4,3-c]pyridin-6-yl)urea] |  |
| 0.537 nM | 0.1 to 1.2 nM |  | C[C@@H](NC(=O)Nc1cc2[nH]nc(C3=CCOCC3)c2cn1)c1ccccc1 [Example 20, 1-[3-(3,6-dihydro-2H-pyran-4-yl)-1H-pyrazolo[4,3-c]pyridin-6-yl]-3-[(1R)-1-phenylethyl]urea] |  |
| 0.152 nM | 0.1 to 1.2 nM | 0.204 nM | Cc1cc(-c2n[nH]c3cc(NC(=O)N[C@H](C)c4ccccc4)ncc23)ccn1 [Example 6, 1-[3-(2-methylpyridin-4-yl)-1H-pyrazolo[4,3-c]pyridin-6-yl]-3-[(1R)-1-phenylethyl]urea] |  |
| 1.12 nM | 0.1 to 1.2 nM |  | COc1cccc(F)c1CN1CCCC(NC(=O)Nc2cc3[nH]nc(-c4ccnc(C)c4)c3cn2)C1 (centres unmarked) [Example 4, 1-[1-(2-fluoro-6-methoxybenzyl)-piperidin-3-yl]-3-[3-(2-methylpyridin-4-yl)-1H-pyrazolo[4,3-c]pyridin-6-yl]urea] |  |
|  | 0.1 to 1.2 nM | 1.96 nM | C[C@@H](NC(=O)Nc1cc2[nH]nc(C3CC3)c2cn1)c1ccccc1 [Example 25, 1-(3-cyclopropyl-1H-pyrazolo[4,3-c]pyridin-6-yl)-3-[(1R)-1-phenylethyl]urea] |  |
| 3.13 nM |  |  | Cc1cc(-c2n[nH]c3cc(NC(=O)NC4CCCNC4)ncc23)ccn1 (centres unmarked) [Example 1, 3-({[3-(2-methylpyridin-4-yl)-1H-pyrazolo[4,3-c]pyridin-6-yl]carbamoyl}amino)piperidinium trifluoroacetate] |  |
| 0.152 nM | 0.1 to 1.2 nM | 0.286 nM | COc1cccc(F)c1CN1CCC[C@@H](NC(=O)Nc2cc3[nH]nc(-c4ccnc(C)c4)c3cn2)C1 [Example 2, 1-[(3R)-1-(2-fluoro-6-methoxybenzyl)-piperidin-3-yl]-3-[3-(2-methylpyridin-4-yl)-1H-pyrazolo[4,3-c]pyridin-6-yl]urea] |  |
| 108 nM |  |  | Cc1cc(-c2n[nH]c3cc(NC(=O)N[C@@H](CO)c4ccccc4)ncc23)ccn1 [Example 17, 1-[(1R)-2-hydroxy-1-phenylethyl]-3-[3-(2-methylpyridin-4-yl)-1H-pyrazolo[4,3-c]pyridin-6-yl]urea] |  |
| 0.215 nM | 0.1 to 1.2 nM |  | Cc1cc(-c2n[nH]c3cc(NC(=O)NC(CO)c4ccccc4)ncc23)ccn1 (centres unmarked) [Example 10, 1-(2-hydroxy-1-phenylethyl)-3-[3-(2-methylpyridin-4-yl)-1H-pyrazolo[4,3-c]pyridin-6-yl]urea] |  |
| 2.22 nM |  | 2 nM | Cc1cc(-c2n[nH]c3cc(NC(N)=O)ncc23)ccn1 [Example 23, 1-(3-(2-methylpyridin-4-yl)-1H-pyrazolo[4,3-c]pyridin-6-yl)urea] |  |
| 0.516 nM | 0.1 to 1.2 nM |  | Cc1cc(-c2n[nH]c3cc(NC(=O)NCc4ccc(Cl)c(Cl)c4)ncc23)ccn1 [Example 8, 1-(3,4-dichlorobenzyl)-3-[3-(2-methylpyridin-4-yl)-1H-pyrazolo[4,3-c]pyridin-6-yl]urea] |  |
| 0.152 nM | 0.1 to 1.2 nM | 0.342 nM | Cc1cc(-c2n[nH]c3cc(NC(=O)N[C@@H](C)c4ccc(F)cc4)ncc23)ccn1 [Example 11, 1-[(1S)-1-(4-fluorophenyl)ethyl]-3-[3-(2-methylpyridin-4-yl)-1H-pyrazolo[4,3-c]pyridin-6-yl]urea] |  |
| 36.6 nM |  |  | COc1cccc(F)c1CN1CCC[C@H](NC(=O)Nc2cc3[nH]nc(-c4ccnc(C)c4)c3cn2)C1 [Example 3, 1-[(3S)-1-(2-fluoro-6-methoxybenzyl)-piperidin-3-yl]-3-[3-(2-methylpyridin-4-yl)-1H-pyrazolo[4,3-c]pyridin-6-yl]urea] |  |
| 0.296 nM | 0.1 to 1.2 nM | 0.556 nM | Cc1cc(-c2n[nH]c3cc(NC(=O)N[C@H](C)c4ccc(Cl)cc4)ncc23)ccn1 [Example 19, 1-[(1R)-1-(4-chlorophenyl)ethyl]-3-[3-(2-methylpyridin-4-yl)-1H-pyrazolo[4,3-c]pyridin-6-yl]urea] |  |
| 2.23 nM |  | 2.53 nM | COCCCc1n[nH]c2cc(NC(=O)N[C@H](C)c3ccccc3)ncc12 [Example 21, (R)-1-(3-(3-methoxypropyl)-1H-pyrazolo[4,3-c]pyridin-6-yl)-3-(1-phenylethyl)urea] |  |
|  |  | 25.3 nM | C[C@@H](NC(=O)Nc1cc2[nH]nc(CNCC(F)F)c2cn1)c1ccccc1 [Example 562] |  |
|  |  | 0.323 nM | Cc1cc(-c2n[nH]c3cc(NC(=O)NCc4cnsn4)ncc23)ccn1 [Example 425] |  |
|  |  | 0.487 nM | CC[C@@H](NC(=O)Nc1cc2[nH]nc(-c3ccnc(C)c3)c2cn1)c1ccccn1 [Example 218] |  |

| SMILES | IC50 [1, 3] | IC50 [1, 4] | IC50 [2, 5] | IC50 [2] |
| --- | --- | --- | --- | --- |
| Cc1cc(-c2n[nH]c3cc(NC(=O)NCc4ccccc4)ncc23)ccn1 [Example 9] | 0.222 nM | 0.1 to 1.2 nM |  | 0.851 nM |
